These are literature values, as cited in US20250161199A1, “FORMULATION FOR TREATING AND PREVENTING HAIR LOSS” (DR. BARR - MEDICINE AS ART LTD, priority 2023, published 2025).

The subject of the series is androgenic alopecia. To be noted: in vivo.

Regarding `C[C@]12C=CC(=O)N[C@@H]1CC[C@@H]1[C@@H]2CC[C@]2(C)[C@@H](C(=O)Nc3cc(C(F)(F)F)ccc3C(F)(F)F)CC[C@@H]12` [dutasteride], the “time until effect becomes apparent” value is listed as “only after several months of treatment”. Take `CC(C)(C)NC(=O)[C@H]1CC[C@H]2[C@@H]3CC[C@H]4NC(=O)C=C[C@]4(C)[C@H]3CC[C@]12C` [finasteride]: the “time until effect becomes apparent” value was “only after several months of treatment”.
